Data reported in publication PMC11484861 (Nature Communications, 2024).
Ends that are not written are not given here.

Tests used:
TOMM22 level = assay type: cell-based, human; conditions: for effects of SQSTM1 on TOMM22 degradation: PDPK1-KO HEK293T, even in the presence of PDPK1, Mdivi-1 2.5 μM, CQ 50 μM, wortmannin 5 μM, 4 h (Fig 2G)
[1] = tested on: SARS-CoV-2 M protein level; assay type: cell-based, human
MAVS level = assay type: cell-based, human
IFNB1 mRNA expression [2] = assay type: cell-based, human
PEDV [3] = assay type: cell-based
PEDV [4] = assay type: cell-based; remark: listed apart in the source
mitophagy = assay type: cell-based, human
IFNB1 mRNA expression [5] = tested on: IFNB1 mRNA expression; design: species or system mice; conditions: mouse, in vivo
[6] = tested on: phosphorylation of SQSTM1 at T138; assay type: cell-based, human
IFNB1 mRNA expression [7] = assay type: cell-based, human; remark: listed apart in the source
binding of SQSTM1 to M = assay type: cell-based, human
[8] = tested on: binding of SQSTM1 to TOMM22; assay type: cell-based, human
GFP-SQSTM1 = GFP-SQSTM1 (Homo sapiens, UniProt Q13501); experiment: biochemical; assay type: binding
IFNB1 mRNA expression [9] = assay type: cell-based, human; conditions: HEK293T, presence vs absence of poly (I:C); P = 0.001 (Fig 6A)
[10] = target: GFP-PDPK1 (human (cloned from HEK293T cells)) (UniProt O15530); experiment: MST
GFP-PDPK1 (human (cloned from HEK293T cells)), sequence (O15530 whole entry): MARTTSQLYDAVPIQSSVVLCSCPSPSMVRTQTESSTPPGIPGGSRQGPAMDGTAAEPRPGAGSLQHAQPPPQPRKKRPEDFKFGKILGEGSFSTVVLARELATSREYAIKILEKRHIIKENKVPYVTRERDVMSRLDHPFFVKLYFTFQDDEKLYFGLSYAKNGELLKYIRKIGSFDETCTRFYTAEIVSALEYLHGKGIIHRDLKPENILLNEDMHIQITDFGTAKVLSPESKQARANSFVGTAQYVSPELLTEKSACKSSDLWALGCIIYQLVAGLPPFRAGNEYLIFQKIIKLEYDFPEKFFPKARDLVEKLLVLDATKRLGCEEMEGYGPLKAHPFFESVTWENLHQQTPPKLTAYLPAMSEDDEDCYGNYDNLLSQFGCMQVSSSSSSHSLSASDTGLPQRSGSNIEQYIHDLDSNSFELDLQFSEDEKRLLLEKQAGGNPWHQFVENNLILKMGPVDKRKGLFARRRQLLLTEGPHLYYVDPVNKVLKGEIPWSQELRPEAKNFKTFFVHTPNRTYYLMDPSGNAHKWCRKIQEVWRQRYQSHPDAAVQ

## CCN(CC)CCCC(C)Nc1ccnc2cc(Cl)ccc12 (stereo not drawn) [CQ, chloroquine]
TOMM22 level
  effects of SQSTM1 on TOMM22 degradation: completely abolished
[1]
  effects of SQSTM1 on M degradation: completely abolished

## NCC(=O)Nc1ccc(-n2nc(C(F)(F)F)cc2-c2ccc3c(ccc4ccccc43)c2)cc1 [OSU-03012]
MAVS level
  levels of MAVS decreased by PM or M expression: restored
IFNB1 mRNA expression [2]
  IFNB1 expression during VSV-M infection in cells: restored
PEDV [3]
  PEDV M protein expression during PEDV infection: reduced
PEDV [4]
  PEDV replication / viral titer (TCID50) in cells: attenuated
mitophagy
  decrease in GFP fluorescence of RFP-GFP-Mito caused by SQSTM1 expression: reversed the decrease
  effect of M on the shift in the green signal to a red signal (RFP-GFP-Mito, mitophagy): reversed
IFNB1 mRNA expression [5]
  IFNB1 expression in lungs of VSV-M-infected mice: restored
[6]
  M/PM-induced phosphorylation of SQSTM1 at T138: inhibited
  phosphorylation of SQSTM1 at T138: blocked
IFNB1 mRNA expression [7]
  IFNB1 expression during PEDV infection in cells: restored
TOMM22 level; Fig 5B
  levels of TOMM22 decreased by PM or M expression: restored
TOMM22 level; SQSTM1-KO cells with SQSTM1 expression, compared with control group (Fig S2J)
  TOMM22 levels: restored
Binding of SQSTM1 to M
  binding of SQSTM1 to M: increased
[1]
  M levels: further decreased
[8]
  binding of SQSTM1 to TOMM22: decreased

## COC[C@H]1OC(=O)c2coc3c2[C@@]1(C)C1=C(C3=O)[C@@H]2CCC(=O)[C@@]2(C)C[C@H]1OC(C)=O [wortmannin]
TOMM22 level
  effects of SQSTM1 on TOMM22 degradation: completely abolished
[1]
  effects of SQSTM1 on M degradation: completely abolished

## Mdivi-1
TOMM22 level
  effects of SQSTM1 on TOMM22 degradation: only blocked
[1]
  effects of SQSTM1 on M degradation: not M degradation

## SMWSFNPETN [M-CD]
GFP-SQSTM1
  Kd: 115 ± 28 nM

## poly (I:C)
IFNB1 mRNA expression [9]
  IFNB1 mRNA expression: substantially increased

## unlabeled M-β3-5 (MST ligand) (from UniProt P0DTC5 1-222) (domain or fragment)
[10]
  Kd: 71 nM
